Measurements taken from PubChem BioAssay (NCI).
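Here, GI50 denotes the concentration required for 50% inhibition of growth. TGI marks complete inhibition of growth.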

Experiments:
Assay in all cases: growth of human tumour cells (NCI), 384-well format; in the data active means GI50 below about 0.43 µM; inactive means the rest
EKVX NSCLC = tested on: EKVX NSCLC
NCI-H23 lung = tested on: NCI-H23 lung
M14 melanoma = tested on: M14 melanoma
U251 glioblastoma = tested on: U251 glioblastoma
MDA-MB-435 melanoma = tested on: MDA-MB-435 melanoma
MDA-MB-231 breast = tested on: MDA-MB-231 breast
HL-60(TB) leukemia = tested on: HL-60(TB) leukemia
IGROV1 ovarian = tested on: IGROV1 ovarian
786-0 renal = tested on: 786-0 renal
HOP-92 NSCLC = tested on: HOP-92 NSCLC
SK-MEL-5 melanoma = tested on: SK-MEL-5 melanoma
HS 578T breast = tested on: HS 578T breast
SF-539 CNS = tested on: SF-539 CNS
OVCAR-3 ovarian = tested on: OVCAR-3 ovarian
RXF 393 renal = tested on: RXF 393 renal
SK-MEL-28 melanoma = tested on: SK-MEL-28 melanoma
NCI/ADR-RES ovarian = tested on: NCI/ADR-RES ovarian
UACC-62 melanoma = tested on: UACC-62 melanoma
HCT-116 colon = tested on: HCT-116 colon
MOLT-4 leukemia = tested on: MOLT-4 leukemia
HT29 colon = tested on: HT29 colon
UACC-257 melanoma = tested on: UACC-257 melanoma
NCI-H322M lung = tested on: NCI-H322M lung
SF-268 CNS = tested on: SF-268 CNS
OVCAR-4 ovarian = tested on: OVCAR-4 ovarian
SF-295 CNS = tested on: SF-295 CNS
MDA-MB-468 breast = tested on: MDA-MB-468 breast
MCF7 breast = tested on: MCF7 breast
A498 renal = tested on: A498 renal
NCI-H522 lung = tested on: NCI-H522 lung
COLO 205 colon = tested on: COLO 205 colon
A549 NSCLC = tested on: A549 NSCLC
HCC-2998 colon = tested on: HCC-2998 colon
K-562 leukemia = tested on: K-562 leukemia
ACHN renal = tested on: ACHN renal
NCI-H460 NSCLC = tested on: NCI-H460 NSCLC
SNB-19 CNS = tested on: SNB-19 CNS
CAKI-1 renal = tested on: CAKI-1 renal
BT-549 breast = tested on: BT-549 breast
SN12C renal = tested on: SN12C renal
SW-620 colon = tested on: SW-620 colon
KM12 colon = tested on: KM12 colon
CCRF-CEM leukemia = tested on: CCRF-CEM leukemia
HOP-62 NSCLC = tested on: HOP-62 NSCLC
MALME-3M melanoma = tested on: MALME-3M melanoma
DU-145 prostate = tested on: DU-145 prostate
TK-10 renal = tested on: TK-10 renal
SK-OV-3 ovarian = tested on: SK-OV-3 ovarian
LOX IMVI melanoma = tested on: LOX IMVI melanoma
T-47D breast = tested on: T-47D breast
NCI-H226 lung = tested on: NCI-H226 lung
UO-31 renal = tested on: UO-31 renal
OVCAR-8 ovarian = tested on: OVCAR-8 ovarian
SNB-75 CNS = tested on: SNB-75 CNS
PC-3 prostate = tested on: PC-3 prostate
HCT-15 colon = tested on: HCT-15 colon
RPMI-8226 leukemia = tested on: RPMI-8226 leukemia

CC1(C)OCCn2c1nc1c(N3CCOCC3)nc(-c3cnc(N)nc3)nc12
638 nM: TGI (T-47D breast)
3440 nM: TGI (LOX IMVI melanoma)
5490 nM: TGI (SN12C renal)
667 nM: TGI (RPMI-8226 leukemia)
4100 nM: TGI (EKVX NSCLC)
3680 nM: TGI (TK-10 renal)
9220 nM: TGI (COLO 205 colon)
6090 nM: TGI (A549 NSCLC)
4420 nM: TGI (RXF 393 renal)
2560 nM: TGI (SK-MEL-5 melanoma)
2900 nM: TGI (NCI-H226 lung)
1200 nM: TGI (MOLT-4 leukemia) | TGI (SK-OV-3 ovarian)
inactive: GI50 (EKVX NSCLC) 519 nM | GI50 (NCI-H23 lung) 446 nM | GI50 (M14 melanoma) 494 nM | GI50 (U251 glioblastoma) 2250 nM | GI50 (MDA-MB-435 melanoma) 1230 nM | GI50 (MDA-MB-231 breast) 584 nM | GI50 ([…]-0 renal) 1280 nM | GI50 (SK-MEL-5 melanoma) 519 nM | GI50 (SF-539 CNS) 1040 nM | GI50 (OVCAR-3 ovarian) 513 nM | GI50 (RXF 393 renal) 758 nM | GI50 (NCI/ADR-RES ovarian) 1770 nM | GI50 (UACC-62 melanoma) 556 nM | GI50 (HCT-116 colon) 545 nM | GI50 (UACC-257 melanoma) 1830 nM | GI50 (NCI-H322M lung) 458 nM | GI50 (SF-268 CNS) 1070 nM | GI50 (OVCAR-4 ovarian) 1040 nM | GI50 (A549 NSCLC) 477 nM | GI50 (HCC-2998 colon) 885 nM | GI50 (K-562 leukemia) 1950 nM | GI50 (ACHN renal) 467 nM | GI50 (SNB-19 CNS) 5610 nM | GI50 (BT-549 breast) 799 nM | GI50 (SW-620 colon) 1600 nM | GI50 (KM12 colon) 834 nM | GI50 (CCRF-CEM leukemia) 491 nM | GI50 (HOP-62 NSCLC) 771 nM | GI50 (DU-145 prostate) 527 nM | GI50 (LOX IMVI melanoma) 556 nM | GI50 (OVCAR-8 ovarian) 742 nM | GI50 (HCT-15 colon) 432 nM
active: GI50 (HL-60(TB) leukemia) 153 nM | GI50 (IGROV1 ovarian) 158 nM | GI50 (HOP-92 NSCLC) 385 nM | GI50 (HS 578T breast) 275 nM | GI50 (SK-MEL-28 melanoma) 418 nM | GI50 (MOLT-4 leukemia) 218 nM | GI50 (HT29 colon) 412 nM | GI50 (SF-295 CNS) 316 nM | GI50 (MDA-MB-468 breast) 399 nM | GI50 (MCF7 breast) 96.4 nM | GI50 (A498 renal) 314 nM | GI50 (NCI-H522 lung) 368 nM | GI50 (COLO 205 colon) 378 nM | GI50 (NCI-H460 NSCLC) 199 nM | GI50 (CAKI-1 renal) 279 nM | GI50 (SN12C renal) 389 nM | GI50 (MALME-3M melanoma) 161 nM | GI50 (TK-10 renal) 412 nM | GI50 (SK-OV-3 ovarian) 199 nM | GI50 (T-47D breast) 128 nM | GI50 (NCI-H226 lung) 348 nM | GI50 (UO-31 renal) 416 nM | GI50 (SNB-75 CNS) 232 nM | GI50 (PC-3 prostate) 306 nM | GI50 (RPMI-8226 leukemia) 193 nM
9930 nM: TGI (786-0 renal)
2890 nM: TGI (HOP-92 NSCLC)
659 nM: TGI (IGROV1 ovarian)
> 100000 nM: TGI (NCI-H23 lung) | TGI (M14 melanoma) | TGI (U251 glioblastoma) | TGI (MDA-MB-435 melanoma) | TGI (MDA-MB-231 breast) | TGI (SF-539 CNS) | TGI (NCI/ADR-RES ovarian) | TGI (HCT-116 colon) | TGI (HT29 colon) | TGI (UACC-257 melanoma) | TGI (SF-268 CNS) | TGI (MCF7 breast) | TGI (NCI-H522 lung) | TGI (HCC-2998 colon) | TGI (K-562 leukemia) | TGI (NCI-H460 NSCLC) | TGI (SNB-19 CNS) | TGI (SW-620 colon) | TGI (KM12 colon) | TGI (HOP-62 NSCLC) | TGI (UO-31 renal) | TGI (OVCAR-8 ovarian) | TGI (HCT-15 colon)
1910 nM: TGI (HL-60(TB) leukemia)
6920 nM: TGI (PC-3 prostate)
8700 nM: TGI (NCI-H322M lung)
2200 nM: TGI (A498 renal)
5420 nM: TGI (SK-MEL-28 melanoma)
749 nM: TGI (MALME-3M melanoma)
1350 nM: TGI (HS 578T breast)
2740 nM: TGI (CAKI-1 renal)
9150 nM: TGI (DU-145 prostate)
5790 nM: TGI (OVCAR-4 ovarian)
7050 nM: TGI (CCRF-CEM leukemia)
6870 nM: TGI (ACHN renal)
5590 nM: TGI (BT-549 breast)
2270 nM: TGI (SNB-75 CNS)
7280 nM: TGI (OVCAR-3 ovarian)
1780 nM: TGI (MDA-MB-468 breast)
2980 nM: TGI (UACC-62 melanoma)
2020 nM: TGI (SF-295 CNS)
